Data taken from patent publication US12509454B2, “Thiadiazolyl derivatives” (IDEAYA Biosciences, Inc., priority 2019, dated 2025).

biological target: Pol theta (1-899) (Homo sapiens (Human), UniProt O75417); experiment: Pol theta ATPase activity, NADH oxidation-coupled enzymatic assay; type: biochemical; details: Pol theta (1-899) 10 nM, ATP, dT50 ssDNA, absorbance 340 nm, 10-point dilution series; read-out: ATPase NADH coupling:Standard Screening:hPolQ IC50
Description: The ability of the compounds of Formula (I) to inhibit ATPase activity of Pol theta (1-899) was determined using the assay described below.
Pol Theta ATPase activity was determined by measuring the rate of ATP turn over in a NADH oxidation-coupled enzymatic assay. 10-point dilution series of compounds were used in a 384 well format for the inhibition assays. Pol theta (1-899) (10 nM) in assay buffer (20 mM Tris HCl (pH 7.80), 80 mM KCl, 10 mM MgCl2, 1 mM DTT, 0.01% BSA, 0.01% Tween, 5% glycerol) was transferred to the test wells (20 μL), except the low control wells (20 μL of assay buffer was added to the low control wells). The plate was then incubated at room temperature for 15 min. An equal volume (20 μL) of 100 μM ATP, 300 nM dT50 (single-stranded DNA (ssDNA) containing 50 thymine bases), 300 μM NADH, 6 mM PEP, 10 U/mL lactate dehydrogenase and 20 U/mL pyruvate kinase in assay buffer was added to all the test wells. The plate was then centrifuged at 1000 rpm for 1 min. The reaction was monitored for 30 min by measuring absorbance (λ=340 nm) in a Tecan Spark multimode plate reader every minute. The high control (DMSO with enzyme) with low absorbance intensity represents no inhibition of ATPase reaction while the low control (DMSO with buffer) with high absorbance intensity represents full inhibition of ATPase activity. Slope of the reaction progress curves were used to calculate the rate of ATP hydrolysis. The rates were used to determine the percent inhibition using a four-parameter inhibition model to generate IC50, Hill slope and max inhibition.

Pol theta (1-899), sequence (O75417 1-899): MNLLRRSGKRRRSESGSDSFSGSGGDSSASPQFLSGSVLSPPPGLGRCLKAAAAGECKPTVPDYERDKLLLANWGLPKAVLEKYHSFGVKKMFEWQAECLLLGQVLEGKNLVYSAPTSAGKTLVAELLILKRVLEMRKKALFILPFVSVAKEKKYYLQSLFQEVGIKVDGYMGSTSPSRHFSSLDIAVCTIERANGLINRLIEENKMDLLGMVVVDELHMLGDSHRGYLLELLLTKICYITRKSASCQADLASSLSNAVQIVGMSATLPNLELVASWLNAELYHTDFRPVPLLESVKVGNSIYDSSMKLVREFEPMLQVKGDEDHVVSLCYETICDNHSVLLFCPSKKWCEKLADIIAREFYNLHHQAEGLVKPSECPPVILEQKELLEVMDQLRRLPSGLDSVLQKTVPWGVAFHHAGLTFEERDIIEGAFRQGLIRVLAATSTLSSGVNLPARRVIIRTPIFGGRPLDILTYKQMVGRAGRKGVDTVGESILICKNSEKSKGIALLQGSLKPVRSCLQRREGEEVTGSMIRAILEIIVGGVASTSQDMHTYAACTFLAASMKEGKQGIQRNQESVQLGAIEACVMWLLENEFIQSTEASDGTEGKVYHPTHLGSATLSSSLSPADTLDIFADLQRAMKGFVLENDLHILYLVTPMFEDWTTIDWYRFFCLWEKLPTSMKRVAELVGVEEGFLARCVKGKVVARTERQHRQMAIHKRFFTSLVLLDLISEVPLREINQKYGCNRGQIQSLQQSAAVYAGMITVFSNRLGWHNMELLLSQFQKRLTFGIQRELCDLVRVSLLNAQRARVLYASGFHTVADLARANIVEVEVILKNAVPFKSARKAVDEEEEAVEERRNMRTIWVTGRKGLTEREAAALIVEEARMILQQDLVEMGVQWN

Row | SMILES | IC50 [nM]
1 | O=C(Nc1nnc(OCc2ccc(Cl)cc2)s1)c1cncnc1N1CCOCC1 [Example 13, N-(5-((4-chlorobenzyl)oxy)-1,3,4-thiadiazol-2-yl)-4-morpholinopyrimidine-5-carboxamide] | 200 to 500
2 | N#Cc1ccc(C(=O)Nc2nnc(OCc3ccc(Cl)cc3)s2)c(N2CCOCC2)n1 [Example 14, N-(5-((4-chlorobenzyl)oxy)-1,3,4-thiadiazol-2-yl)-6-cyano-2-morpholinonicotinamide] | ≤ 200
3 | O=C(Nc1nnc(OCc2ccc(Br)cn2)s1)c1cccnc1N1CCOCC1 [Example 15] | 1000 to 10000
4 | CC(=O)N1CCN(c2ncccc2C(=O)Nc2nnc(OCc3ccc(Cl)cc3)s2)CC1 [Example 16, 2-(4-acetylpiperazin-1-yl)-N-(5-((4-chlorobenzyl)oxy)-1,3,4-thiadiazol-2-yl)nicotinamide] | 1000 to 10000
5 | O=C(Nc1nnc(OCc2ccc(Cl)cc2)s1)c1cncn1-c1cccnc1 [Example 17, N-(5-((4-chlorobenzyl)oxy)-1,3,4-thiadiazol-2-yl)-1-(pyridin-3-yl)-1H-imidazole-5-carboxamide] | 500 to 1000
6 | O=C(Nc1nnc(OCc2ccc(Cl)cc2)s1)c1cncn1-c1ccncc1 [Example 18, N-(5-((4-chlorobenzyl)oxy)-1,3,4-thiadiazol-2-yl)-1-(pyridin-4-yl)-1H-imidazole-5-carboxamide] | 500 to 1000
7 | O=C(Nc1nnc(OCc2cnc(Cl)cn2)s1)c1cccnc1N1CCOCC1 [Example 19, N-[5-[(5-chloropyrazin-2-yl)methoxy]-1,3,4-thiadiazol-2-yl]-2-(morpholin-4-yl)pyridine-3-carboxamide] | 1000 to 10000
8 | NC(=O)c1ccc(C(=O)Nc2nnc(OCc3ccc(Cl)cc3)s2)c(N2CCOCC2)n1 [Example 21, N^5-(5-((4-chlorobenzyl)oxy)-1,3,4-thiadiazol-2-yl)-6-morpholinopyridine-2,5-dicarboxamide] | 1000 to 10000
9 | C[C@@H]1COCCN1c1ncccc1C(=O)Nc1nnc(OCc2ccc(Cl)cn2)s1 [Example 22, (R)—N-(5-((5-chloropyridin-2-yl)methoxy)-1,3,4-thiadiazol-2-yl)-2-(3-methylmorpholino)nicotinamide] | 1000 to 10000
10 | CS(=O)(=O)N1CCN(c2ncccc2C(=O)Nc2nnc(OCc3ccc(Cl)cn3)s2)CC1 [Example 23, N-(5-((5-chloropyridin-2-yl)methoxy)-1,3,4-thiadiazol-2-yl)-2-(4-(methylsulfonyl)piperazin-1-yl)nicotinamide] | 1000 to 10000
11 | O=C(Nc1nnc(OCc2ccc(Cl)cn2)s1)c1ccnn1-c1ccccc1 [Example 24, N-(5-((5-chloropyridin-2-yl)methoxy)-1,3,4-thiadiazol-2-yl)-1-phenyl-1H-pyrazole-5-carboxamide] | 1000 to 10000
12 | O=C(Nc1nnc(OCc2ccc(Cl)cn2)s1)c1cnnn1-c1ccccc1 [Example 25, N-(5-((5-chloropyridin-2-yl)methoxy)-1,3,4-thiadiazol-2-yl)-1-phenyl-1H-1,2,3-triazole-5-carboxamide] | 1000 to 10000
13 | O=C(Nc1nnc(OCc2ccc(Cl)cn2)s1)c1cncn1-c1ccccc1Cl [Example 26, 3-(2-chlorophenyl)-N-[5-[(5-chloropyridin-2-yl)methoxy]-1,3,4-thiadiazol-2-yl]imidazole-4-carboxamide] | 200 to 500
14 | O=C1CN(c2ncccc2C(=O)Nc2nnc(OCc3ccc(Cl)cc3)s2)CCN1 [Example 27, N-(5-((4-chlorobenzyl)oxy)-1,3,4-thiadiazol-2-yl)-2-(3-oxopiperazin-1-yl)nicotinamide] | 200 to 500
15 | CN(C)C(=O)N1CCN(c2ncccc2C(=O)Nc2nnc(OCc3ccc(Cl)cc3)s2)CC1 [Example 28, 4-(3-((5-((4-chlorobenzyl)oxy)-1,3,4-thiadiazol-2-yl)carbamoyl)pyridin-2-yl)-N,N-dimethylpiperazine-1-carboxamide] | 1000 to 10000
16 | O=C(Nc1nnc(OCc2ccc(Cl)cc2)s1)c1cccnc1N1CCOC2(CC2)C1 [Example 30, N-(5-((4-chlorobenzyl)oxy)-1,3,4-thiadiazol-2-yl)-2-(4-oxa-7-azaspiro[2.5]octan-7-yl)nicotinamide] | ≤ 200
17 | COc1ccc(-n2cncc2C(=O)Nc2nnc(OCc3ccc(Cl)cc3)s2)c(OC)c1 [Example 31, N-(5-((4-chlorobenzyl)oxy)-1,3,4-thiadiazol-2-yl)-1-(2,4-dimethoxyphenyl)-1H-imidazole-5-carboxamide] | ≤ 200

Row | SMILES | IC50 [nM]
18 | N#Cc1ccc(C(=O)Nc2nnc(OCc3ccc(Cl)cn3)s2)c(N2CCOCC2)n1 [Example 32] | 200 to 500
19 | N#Cc1cnc(N2CCOCC2)c(C(=O)Nc2nnc(OCc3ccc(Cl)cn3)s2)c1 [Example 33, N-(5-((5-chloropyridin-2-yl)methoxy)-1,3,4-thiadiazol-2-yl)-5-cyano-2-morpholinonicotinamide] | 500 to 1000
20 | COc1cc(COc2nnc(NC(=O)c3cccnc3N3CCOCC3)s2)ccc1Cl [Example 34, N-(5-((4-chloro-3-methoxybenzyl)oxy)-1,3,4-thiadiazol-2-yl)-2-morpholinonicotinamide] | 1000 to 10000
21 | N#Cc1cc(N2CCOCC2)c(C(=O)Nc2nnc(OCc3ccc(Cl)cc3)s2)cn1 [Example 35, N-(5-((4-chlorobenzyl)oxy)-1,3,4-thiadiazol-2-yl)-6-cyano-4-morpholinonicotinamide] | ≤ 200
22 | COc1cc(N2CCOCC2)c(C(=O)Nc2nnc(OCc3ccc(Cl)cn3)s2)cn1 [Example 36, N-(5-((5-chloropyridin-2-yl)methoxy)-1,3,4-thiadiazol-2-yl)-6-methoxy-4-morpholinonicotinamide] | 1000 to 10000
23 | O=C(Nc1nnc(OCc2ccc(Cl)cn2)s1)c1cccnc1N1CCS(=O)(=O)CC1 [Example 37, N-(5-((5-chloropyridin-2-yl)methoxy)-1,3,4-thiadiazol-2-yl)-2-(1,1-dioxidothiomorpholino)nicotinamide] | 1000 to 10000
24 | O=C(Nc1nnc(OCc2ccc(Cl)cn2)s1)c1cncn1-c1ccccn1 [Example 38, N-(5-((5-chloropyridin-2-yl)methoxy)-1,3,4-thiadiazol-2-yl)-1-(pyridin-2-yl)-1H-imidazole-5-carboxamide] | 1000 to 10000
25 | O=C(Nc1nnc(OCc2ccc(Cl)cn2)s1)c1cccnc1N1CCC(F)(F)CC1 [Example 39, N-(5-((5-chloropyridin-2-yl)methoxy)-1,3,4-thiadiazol-2-yl)-2-(4,4-difluoropiperidin-1-yl)nicotinamide] | 1000 to 10000
26 | O=C(Nc1nnc(OCc2ccc(Br)cc2)s1)c1cccnc1N1CCOCC1 [Example 40, N-(5-((4-bromobenzyl)oxy)-1,3,4-thiadiazol-2-yl)-2-morpholinonicotinamide] | 200 to 500
27 | O=C(Nc1nnc(OCc2ccc(Cl)cc2)s1)c1c[nH]c(=O)cc1N1CCOCC1 [Example 41, N-(5-((4-chlorobenzyl)oxy)-1,3,4-thiadiazol-2-yl)-4-morpholino-6-oxo-1,6-dihydropyridine-3-carboxamide or its tautomer N-(5-((4-chlorobenzyl)oxy)-1,3,4-thiadiazol-2-yl)-6-hydroxy-4-morpholinonicotinamide] | 1000 to 10000
28 | O=C(Nc1nnc(OCc2ccc(Cl)cc2)s1)c1cncn1-c1ccccc1Cl [Example 42, N-(5-((4-chlorobenzyl)oxy)-1,3,4-thiadiazol-2-yl)-1-(2-chlorophenyl)-1H-imidazole-5-carboxamide] | ≤ 200
29 | N#Cc1ccccc1-n1cncc1C(=O)Nc1nnc(OCc2ccc(Cl)cc2)s1 [Example 43, N-(5-((4-chlorobenzyl)oxy)-1,3,4-thiadiazol-2-yl)-1-(2-cyanophenyl)-1H-imidazole-5-carboxamide] | 200 to 500
30 | N#Cc1ccc(C(=O)Nc2nnc(OCc3ccc(Cl)cc3)s2)c(N2CCOC3(CC3)C2)n1 [Example 44, N-(5-((4-chlorobenzyl)oxy)-1,3,4-thiadiazol-2-yl)-6-cyano-2-(4-oxa-7-azaspiro[2.5]octan-7-yl)nicotinamide] | ≤ 200
31 | CN1CCN(c2ncccc2C(=O)Nc2nnc(OCc3ccc(Cl)cc3)s2)CC1=O [Example 45, N-[5-[(4-chlorophenyl)methoxy]-1,3,4-thiadiazol-2-yl]-2-(4-methyl-3-oxopiperazin-1-yl)pyridine-3-carboxamide] | 500 to 1000
32 | O=C(Nc1nnc(OCc2ccc(C3CC3)cc2)s1)c1cccnc1N1CCOCC1 [Example 47, N-(5-((4-cyclopropylbenzyl)oxy)-1,3,4-thiadiazol-2-yl)-2-morpholinonicotinamide] | 200 to 500
33 | NC(=O)c1cc(N2CCOCC2)c(C(=O)Nc2nnc(OCc3ccc(Cl)cc3)s2)cn1 [Example 48, N^5-(5-((4-chlorobenzyl)oxy)-1,3,4-thiadiazol-2-yl)-4-morpholinopyridine-2,5-dicarboxamide] | 200 to 500
34 | COc1cccc(-n2cncc2C(=O)Nc2nnc(OCc3ccc(Cl)cc3)s2)c1 [Example 49, N-(5-((4-chlorobenzyl)oxy)-1,3,4-thiadiazol-2-yl)-1-(3-methoxyphenyl)-1H-imidazole-5-carboxamide] | 500 to 1000
